Patent publication US12065436B2, “Cardiac sarcomere inhibitors” (Cytokinetics, Inc., priority 2018, dated 2024)

Molecular target: bovine cardiac myofibrils (full-length cardiac myosin ATPase in the native sarcomere) (Bos taurus (Bovine), UniProt Q9BE39)
Test: Skinned bovine cardiac myofibril ATPase assay (PK/LDH-coupled)
Type: biochemical
Conditions: Ca2+ activating to 75% of maximal rate; for CDMF75 IC15: concentration giving 15% inhibition; for IC50: read-out: CDMF75 IC50
Procedure, shortened: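 Triton-skinned bovine left-ventricle myofibrils (1 mg/mL) in PM 12 buffer (12 mM PIPES, 2 mM MgCl2, pH 6.8) with 50 μM ATP, 0.6 mM EGTA and CaCl2 set for 50% or 75% activation. Steady-state ATPase inhibition followed by PK/LDH-coupled NADH oxidation at 340 nm.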

Sequence of bovine cardiac myofibrils (full-length cardiac myosin ATPase in the native sarcomere) (Q9BE39 whole entry): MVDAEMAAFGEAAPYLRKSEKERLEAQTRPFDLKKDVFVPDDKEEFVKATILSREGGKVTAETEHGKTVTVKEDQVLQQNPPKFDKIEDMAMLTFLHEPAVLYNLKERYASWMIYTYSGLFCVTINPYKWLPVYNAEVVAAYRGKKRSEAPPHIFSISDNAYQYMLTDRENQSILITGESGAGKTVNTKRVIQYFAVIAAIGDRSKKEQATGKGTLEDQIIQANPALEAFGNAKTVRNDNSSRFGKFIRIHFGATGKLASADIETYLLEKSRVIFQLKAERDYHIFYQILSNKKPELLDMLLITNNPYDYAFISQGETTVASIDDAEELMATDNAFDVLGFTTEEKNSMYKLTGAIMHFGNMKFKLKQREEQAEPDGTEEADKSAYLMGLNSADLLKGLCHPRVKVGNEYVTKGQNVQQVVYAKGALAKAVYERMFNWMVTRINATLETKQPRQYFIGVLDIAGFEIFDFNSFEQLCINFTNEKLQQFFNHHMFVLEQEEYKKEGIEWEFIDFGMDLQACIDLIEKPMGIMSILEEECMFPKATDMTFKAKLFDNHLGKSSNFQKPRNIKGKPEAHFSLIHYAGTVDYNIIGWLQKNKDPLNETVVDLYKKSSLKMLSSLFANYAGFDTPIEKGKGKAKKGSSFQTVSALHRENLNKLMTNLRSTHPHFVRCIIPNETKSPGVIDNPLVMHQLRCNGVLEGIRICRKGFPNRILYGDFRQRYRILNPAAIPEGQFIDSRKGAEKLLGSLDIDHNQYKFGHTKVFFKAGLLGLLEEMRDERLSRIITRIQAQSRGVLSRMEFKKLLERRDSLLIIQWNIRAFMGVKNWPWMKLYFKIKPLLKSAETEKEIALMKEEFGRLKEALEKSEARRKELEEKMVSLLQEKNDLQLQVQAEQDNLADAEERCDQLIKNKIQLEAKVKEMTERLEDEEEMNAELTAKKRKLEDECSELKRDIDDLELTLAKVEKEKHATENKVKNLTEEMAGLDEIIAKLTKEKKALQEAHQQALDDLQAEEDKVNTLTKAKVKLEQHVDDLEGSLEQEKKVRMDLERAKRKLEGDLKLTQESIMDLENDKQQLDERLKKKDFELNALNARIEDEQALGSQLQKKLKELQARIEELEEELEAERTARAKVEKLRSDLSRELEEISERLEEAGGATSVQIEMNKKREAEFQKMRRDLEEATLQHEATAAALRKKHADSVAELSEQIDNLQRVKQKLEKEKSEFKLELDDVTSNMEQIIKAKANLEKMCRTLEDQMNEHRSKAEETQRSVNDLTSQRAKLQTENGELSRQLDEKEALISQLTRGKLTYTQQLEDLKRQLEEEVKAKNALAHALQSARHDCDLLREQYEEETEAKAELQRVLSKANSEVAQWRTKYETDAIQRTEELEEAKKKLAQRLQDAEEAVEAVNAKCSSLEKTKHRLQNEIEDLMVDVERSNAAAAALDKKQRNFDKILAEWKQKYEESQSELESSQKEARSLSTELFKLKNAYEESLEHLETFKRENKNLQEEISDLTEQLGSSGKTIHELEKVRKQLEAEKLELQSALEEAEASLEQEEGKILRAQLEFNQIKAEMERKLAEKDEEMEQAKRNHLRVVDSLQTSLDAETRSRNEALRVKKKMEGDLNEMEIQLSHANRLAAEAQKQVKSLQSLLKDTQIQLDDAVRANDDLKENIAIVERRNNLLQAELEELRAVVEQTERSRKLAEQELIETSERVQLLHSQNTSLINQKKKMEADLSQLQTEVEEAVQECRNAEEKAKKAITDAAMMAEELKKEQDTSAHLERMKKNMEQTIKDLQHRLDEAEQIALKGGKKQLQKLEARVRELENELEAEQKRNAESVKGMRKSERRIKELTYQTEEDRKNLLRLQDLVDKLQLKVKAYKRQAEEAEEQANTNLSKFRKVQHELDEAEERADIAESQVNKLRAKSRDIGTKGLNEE
Sequence of bovine cardiac myofibrils (full-length cardiac myosin ATPase in the native sarcomere) (P85100 whole entry partner): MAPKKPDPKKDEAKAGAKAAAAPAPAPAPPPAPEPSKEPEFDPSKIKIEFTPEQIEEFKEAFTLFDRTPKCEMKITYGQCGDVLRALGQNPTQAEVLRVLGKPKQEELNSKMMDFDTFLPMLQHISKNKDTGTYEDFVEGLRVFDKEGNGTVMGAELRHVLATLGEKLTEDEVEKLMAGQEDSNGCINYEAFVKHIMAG
Sequence of bovine cardiac myofibrils (full-length cardiac myosin ATPase in the native sarcomere) (Q3SZE5 whole entry partner): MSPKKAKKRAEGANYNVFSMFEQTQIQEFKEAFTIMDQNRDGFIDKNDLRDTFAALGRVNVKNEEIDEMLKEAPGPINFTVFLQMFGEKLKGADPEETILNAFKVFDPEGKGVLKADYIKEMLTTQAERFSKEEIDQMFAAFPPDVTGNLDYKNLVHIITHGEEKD

Cn1nccc1C(=O)N[C@@H]1CCc2cc(-c3nc(C(F)F)no3)ccc21 [Compound 217, (R)—N-(5-(3-(difluoromethyl)-1,2,4-oxadiazol-5-yl)-2,3-dihydro-1H-inden-1-yl)-1-methyl-1H-pyrazole-5-carboxamide] was tested, and the “CDMF75 IC15” value was 600 nM and the IC50 was 1900 nM.
In the case of Cc1noc(-c2ccc3c(c2)CC[C@H]3NC(=O)c2nnc(C)o2)n1 [Compound 703, (R)-5-methyl-N-(5-(3-methyl-1,2,4-oxadiazol-5-yl)-2,3-dihydro-1H-inden-1-yl)-1,3,4-oxadiazole-2-carboxamide], the “CDMF75 IC15” value is reported as 1700 nM and the IC50 is reported as 6200 nM.
COCc1nc(-c2ccc3c(c2)OC[C@H]3NC(=O)c2cccc([C@@H](C)O)c2)no1 [Compound 737, 3-((R)-1-hydroxyethyl)-N-((S)-6-(5-(methoxymethyl)-1,2,4-oxadiazol-3-yl)-2,3-dihydrobenzofuran-3-yl)benzamide] was tested, and the “CDMF75 IC15” value was 2400 nM and the IC50 was 14900 nM.
With Cn1nnc(C(=O)NC2COc3cc(-c4noc(C(F)F)n4)ccc32)n1 (stereo not shown) [Compound 197, N-(6-(5-(difluoromethyl)-1,2,4-oxadiazol-3-yl)-2,3-dihydrobenzofuran-3-yl)-2-methyl-2H-tetrazole-5-carboxamide] the “CDMF75 IC15” value was 3200 nM and the IC50 was 12400 nM.
Cc1noc(-c2ccc3c(c2)CC[C@H]3NC(=O)c2cnn(CCO)c2C)n1 [Compound 704, (R)-1-(2-hydroxyethyl)-5-methyl-N-(5-(3-methyl-1,2,4-oxadiazol-5-yl)-2,3-dihydro-1H-inden-1-yl)-1H-pyrazole-4-carboxamide] was tested, and the “CDMF75 IC15” value was 2600 nM and the IC50 was 11400 nM.
For Cc1ncc(C(=O)N[C@@H]2COc3cc(-c4noc(C5CC5)n4)ccc32)o1 [Compound 463, (S)-N-(6-(5-cyclopropyl-1,2,4-oxadiazol-3-yl)-2,3-dihydrobenzofuran-3-yl)-2-methyloxazole-5-carboxamide], the “CDMF75 IC15” value was 700 nM and the IC50 was 2400 nM.
COCCc1nc(-c2ccc3c(c2)CC[C@H]3NC(=O)c2cnn(C)c2)no1 [Compound 546, N-{(1R)-5-[5-(2-methoxyethyl)(1,2,4-oxadiazol-3-yl)]indanyl}(1-methylpyrazol-4-yl)carboxamide] was tested, and the “CDMF75 IC15” value was 15500 nM and the IC50 was 39200 nM.
With Cc1cc(-c2ccc3c(c2)CC[C@H]3NC(=O)c2cnc(C)o2)no1 [Compound 416, (R)-2-methyl-N-(5-(5-methylisoxazol-3-yl)-2,3-dihydro-1H-inden-1-yl)oxazole-5-carboxamide] the “CDMF75 IC15” value was 1200 nM and the IC50 was 4200 nM.
In the case of CCc1nc(-c2ccc3c(c2)CC[C@H]3NC(=O)C2(C)CC2)no1 [Compound 329, (R)-N-(5-(5-ethyl-1,2,4-oxadiazol-3-yl)-2,3-dihydro-1H-inden-1-yl)-1-methylcyclopropane-1-carboxamide], the “CDMF75 IC15” value is reported as 1700 nM and the IC50 is reported as 7000 nM.
In the case of [2H]C([2H])([2H])c1nc(-c2ccc3c(c2)CC[C@H]3NC(C)=O)no1 [Compound 408, (R)-N-(5-(5-(methyl-d3)-1,2,4-oxadiazol-3-yl)-2,3-dihydro-1H-inden-1-yl)acetamide], the “CDMF75 IC15” value is reported as 2800 nM and the IC50 is reported as 12800 nM.
In the case of Cc1cnc(-c2ccc3c(c2)CC[C@H]3NC(=O)c2ccnn2C)s1 [Compound 371, (R)-1-methyl-N-(5-(5-methylthiazol-2-yl)-2,3-dihydro-1H-inden-1-yl)-1H-pyrazole-5-carboxamide], the “CDMF75 IC15” value is reported as 700 nM and the IC50 is reported as 2900 nM.
CCc1nc(-c2ccc3c(c2)CC[C@H]3NC(=O)c2cnco2)no1 [Compound 584, (R)-N-(5-(5-ethyl-1,2,4-oxadiazol-3-yl)-2,3-dihydro-1H-inden-1-yl)oxazole-5-carboxamide] was tested, and the “CDMF75 IC15” value was 300 nM and the IC50 was 1200 nM.
In the case of Cc1cc(C(=O)N[C@@H]2CCc3cc(-c4noc(C(F)F)n4)ccc32)ccn1 [Compound 32, (R)-N-(5-(5-(difluoromethyl)-1,2,4-oxadiazol-3-yl)-2,3-dihydro-1H-inden-1-yl)-2-methylisonicotinamide], the “CDMF75 IC15” value is reported as 600 nM and the IC50 is reported as 2300 nM.
In the case of COCc1nc(-c2ccc3c(c2)CC[C@H]3NC(=O)c2nnc(C)o2)no1 [Compound 698, (R)-N-(5-(5-(methoxymethyl)-1,2,4-oxadiazol-3-yl)-2,3-dihydro-1H-inden-1-yl)-5-methyl-1,3,4-oxadiazole-2-carboxamide], the “CDMF75 IC15” value is reported as 900 nM and the IC50 is reported as 3500 nM.
[2H]C([2H])([2H])C(=O)N[C@@H]1COc2cc(-c3noc(CC)n3)ccc21 [Compound 445, (S)-N-(6-(5-ethyl-1,2,4-oxadiazol-3-yl)-2,3-dihydrobenzofuran-3-yl)acetamide-2,2,2-d3] was tested, and the “CDMF75 IC15” value was 800 nM and the IC50 was 3000 nM.
Cc1cc(C(=O)N[C@@H]2CCc3cc(-c4noc(C(F)F)n4)ccc32)cnn1 [Compound 687, (R)-N-(5-(5-(difluoromethyl)-1,2,4-oxadiazol-3-yl)-2,3-dihydro-1H-inden-1-yl)-6-methylpyridazine-4-carboxamide] was tested, and the “CDMF75 IC15” value was 1000 nM and the IC50 was 4400 nM.
For O=C(N[C@@H]1CCc2cc(-c3noc(C4CCC4)n3)ccc21)c1cnn(CCO)c1 [Compound 524, (R)-N-(5-(5-cyclobutyl-1,2,4-oxadiazol-3-yl)-2,3-dihydro-1H-inden-1-yl)-1-(2-hydroxyethyl)-1H-pyrazole-4-carboxamide], the “CDMF75 IC15” value was 1700 nM and the IC50 was 7300 nM.
For Cc1nc(-c2ccc3c(c2)CC[C@H]3NC(=O)c2nnn(C)n2)no1 [Compound 136, (R)-2-methyl-N-(5-(5-methyl-1,2,4-oxadiazol-3-yl)-2,3-dihydro-1H-inden-1-yl)-2H-tetrazole-5-carboxamide], the “CDMF75 IC15” value was 800 nM and the IC50 was 2800 nM.
With Cc1noc(-c2ccc3c(c2)OC[C@H]3NC(=O)c2nnn(C)n2)n1 [Compound 344, (S)-2-methyl-N-(6-(3-methyl-1,2,4-oxadiazol-5-yl)-2,3-dihydrobenzofuran-3-yl)-2H-tetrazole-5-carboxamide] the “CDMF75 IC15” value was 8600 nM and the IC50 was over 39200 nM.
For Cc1nc(-c2ccc3c(c2)CCC3NC(=O)c2ocnc2C2CC2)no1 (stereo not shown) [Compound 52, 4-cyclopropyl-N-(5-(5-methyl-1,2,4-oxadiazol-3-yl)-2,3-dihydro-1H-inden-1-yl)oxazole-5-carboxamide], the “CDMF75 IC15” value was 1600 nM and the IC50 was 4900 nM.
O=C(NC1CCCC1)N[C@@H]1CCc2cc(-c3noc(C(F)F)n3)ccc21 [Compound 298, (R)-1-cyclopentyl-3-(5-(5-(difluoromethyl)-1,2,4-oxadiazol-3-yl)-2,3-dihydro-1H-inden-1-yl)urea] was tested, and the “CDMF75 IC15” value was 39200 nM and the IC50 was over 39200 nM.
In the case of CCc1cc(-c2ccc3c(c2)CC[C@H]3NC(=O)c2ccnn2C)no1 [Compound 414, (R)—N-(5-(5-ethylisoxazol-3-yl)-2,3-dihydro-1H-inden-1-yl)-1-methyl-1H-pyrazole-5-carboxamide], the “CDMF75 IC15” value is reported as 200 nM and the IC50 is reported as 600 nM.
In the case of CCc1cc(-c2ccc3c(c2)CC[C@H]3NC(=O)c2ccnc(C)c2)no1 [Compound 404, (R)-N-(5-(5-ethylisoxazol-3-yl)-2,3-dihydro-1H-inden-1-yl)-2-methylisonicotinamide], the “CDMF75 IC15” value is reported as 400 nM and the IC50 is reported as 1200 nM.
With Cc1noc(-c2ccc3c(c2)CC[C@H]3NC(=O)c2cnn(C)c2)n1 [Compound 263, (R)-1-methyl-N-(5-(3-methyl-1,2,4-oxadiazol-5-yl)-2,3-dihydro-1H-inden-1-yl)-1H-pyrazole-4-carboxamide] the “CDMF75 IC15” value was 2800 nM and the IC50 was 10500 nM.
For Cc1nc(-c2ccc3c(c2)OCC3NC(=O)c2cnc(C)o2)no1 (stereo not shown) [Compound 166, 2-methyl-N-(6-(5-methyl-1,2,4-oxadiazol-3-yl)-2,3-dihydrobenzofuran-3-yl)oxazole-5-carboxamide], the “CDMF75 IC15” value was 2000 nM and the IC50 was 7000 nM.
With Cc1noc(-c2ccc3c(c2)CC[C@H]3NC(=O)c2ccnn2C)n1 [Compound 204, (R)-1-methyl-N-(5-(3-methyl-1,2,4-oxadiazol-5-yl)-2,3-dihydro-1H-inden-1-yl)-1H-pyrazole-5-carboxamide] the “CDMF75 IC15” value was 500 nM and the IC50 was 1800 nM.
CCOC(=O)C(C)c1nc(-c2ccc3c(c2)CC[C@H]3NC(=O)c2nnn(C)n2)no1 (stereo partly drawn) [Compound 504, ethyl 2-(3-((R)-1-(2-methyl-2H-tetrazole-5-carboxamido)-2,3-dihydro-1H-inden-5-yl)-1,2,4-oxadiazol-5-yl)propanoate] was tested, and the “CDMF75 IC15” value was 4400 nM and the IC50 was 16600 nM.
For Cc1cc(C(=O)N[C@@H]2COc3cc(-c4noc(C(F)F)n4)cnc32)ccn1 [Compound 196, (S)—N-(6-(5-(difluoromethyl)-1,2,4-oxadiazol-3-yl)-2,3-dihydrofuro[3,2-b]pyridin-3-yl)-2-methylisonicotinamide], the “CDMF75 IC15” value was 4500 nM and the IC50 was 17400 nM.
C[C@@H](CO)c1nc(-c2ccc3c(c2)CC[C@H]3NC(=O)c2ccnn2C)no1 [Compound 498, N-((R)-5-(5-((S)-1-hydroxypropan-2-yl)-1,2,4-oxadiazol-3-yl)-2,3-dihydro-1H-inden-1-yl)-1-methyl-1H-pyrazole-5-carboxamide] was tested, and the “CDMF75 IC15” value was 7900 nM and the IC50 was 34700 nM.
With Cc1nc(-c2ccc3c(c2)OC[C@H]3NC(=O)c2ccnn2C)no1 [Compound 122, (S)-1-methyl-N-(6-(5-methyl-1,2,4-oxadiazol-3-yl)-2,3-dihydrobenzofuran-3-yl)-1H-pyrazole-5-carboxamide] the “CDMF75 IC15” value was 500 nM and the IC50 was 1800 nM.
For Cc1nc(-c2ccc3c(c2)CC[C@H]3NC(=O)c2ccnc(C(F)F)c2)no1 [Compound 730, (R)-2-(difluoromethyl)-N-(5-(5-methyl-1,2,4-oxadiazol-3-yl)-2,3-dihydro-1H-inden-1-yl)isonicotinamide], the “CDMF75 IC15” value was 700 nM and the IC50 was 3200 nM.
For Cc1cc(C(=O)N[C@@H]2CCc3cc(-c4noc(C)n4)ccc32)n(C)n1 [Compound 106, (R)-1,3-dimethyl-N-(5-(5-methyl-1,2,4-oxadiazol-3-yl)-2,3-dihydro-1H-inden-1-yl)-1H-pyrazole-5-carboxamide], the “CDMF75 IC15” value was 800 nM and the IC50 was 2800 nM.
